According to PMC4210869, “Functional Phylogenetics Reveals Contributions of Pleiotropic Peptide Action to Ligand-Receptor Coevolution” (Scientific Reports, 2014):
Read-outs that look alike come from different tables or passages of the source. Where no end group is shown, it is not given here.

Tests used:
Format in all cases: cell-based
TcPKr-B = biological target: T1, TcPKr-B (Tribolium castaneum, UniProt A0A0A7H8P0); assay: Aequorin luminescence (calcium mobilization) assay, CHO cells transiently expressing TcPKr-B
T1 sequence (A0A0A7H8P0 1-560): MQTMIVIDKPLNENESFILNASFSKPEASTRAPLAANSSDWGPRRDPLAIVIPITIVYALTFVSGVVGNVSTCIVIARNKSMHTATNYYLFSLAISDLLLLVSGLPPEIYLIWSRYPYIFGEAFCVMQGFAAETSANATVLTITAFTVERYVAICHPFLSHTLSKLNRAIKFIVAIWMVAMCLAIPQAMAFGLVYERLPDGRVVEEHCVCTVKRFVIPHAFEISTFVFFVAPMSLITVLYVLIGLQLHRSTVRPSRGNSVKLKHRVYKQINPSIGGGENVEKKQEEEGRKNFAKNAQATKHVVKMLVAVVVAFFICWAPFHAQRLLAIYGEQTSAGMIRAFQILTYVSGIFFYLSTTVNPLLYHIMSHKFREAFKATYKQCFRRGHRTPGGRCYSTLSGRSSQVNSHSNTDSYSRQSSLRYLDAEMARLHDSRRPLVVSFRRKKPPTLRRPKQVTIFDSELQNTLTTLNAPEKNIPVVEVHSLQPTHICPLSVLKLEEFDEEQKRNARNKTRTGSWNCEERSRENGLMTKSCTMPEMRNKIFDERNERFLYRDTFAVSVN
Description: (§1) We characterized all PRXamide GPCRs through assays of 9 endogenous ligands. Ligand activities were quantified by detection of luminescence responses from CHO cells transiently transfected with GPCR (see Methods and Materials section for details). Dose-response curves were generated by logistic fitting of the log transformed ligand concentrations ranging from 0.01 nM to 10 μM (Fig. 3). All results, shown as averages, were replicated in three independent experiments (see Supplementary Data 1 for details).
(§2) T. castaneum was kept in a 30°C growth chamber under a 16 : 8 (L : D) photoperiod and fed on a diet of wheat flour and Brewer's yeast (10 : 1). Peptides from T. castaneum were synthesized by Genescript (Piscataway, NJ). For culture of Chinese Hamster Ovary cells (CHO), DMEM/F12 medium, fetal bovine serum (FBS), Fungizone and Penicillin/Streptomycin, and coelenterazine for aequorin functional assay were purchased from Gibco cell culture at Life Technologies^TM (Grand Island, NY). TransIT-LT1 Transfection Reagent (Mirus Bio LLC, Madison, WI) was used for transient transfections. […]
(§3) cDNAs for full GPCR ORFs were inserted into the expression vector pcDNA3.1(+) (Invitrogen) or pcDNA5/FRT (Invitrogen). Methods for expression in Chinese Hamster Ovary (CHO) cell supplemented with aequorin and G-α16 and the assays were performed as previously described. Briefly, cells were transfected using the TransIT-LT1 transfection reagent (Mirus Bio LLC). Thirty hours after the transfection, the cells were collected and preincubated with the coelenterazine (Invitrogen) prior to the functional assay. A serial dilution (10 folds) of the 9 endogenous ligands were applied to the cells. The luminescence caused by the intracellular calcium mobilization were measured in continuous 20 seconds in every half-second interval. […] Based on which, a dose response curve was generated for each receptor by logistic fitting in Origin 8.6 (OriginLab).

TcCAPAr = biological target: T2, TcCAPAr (Tribolium castaneum, UniProt A0A0A7H7W3); assay: Aequorin luminescence (calcium mobilization) assay, CHO cells transiently expressing TcCAPAr
T2 sequence (A0A0A7H7W3 1-418): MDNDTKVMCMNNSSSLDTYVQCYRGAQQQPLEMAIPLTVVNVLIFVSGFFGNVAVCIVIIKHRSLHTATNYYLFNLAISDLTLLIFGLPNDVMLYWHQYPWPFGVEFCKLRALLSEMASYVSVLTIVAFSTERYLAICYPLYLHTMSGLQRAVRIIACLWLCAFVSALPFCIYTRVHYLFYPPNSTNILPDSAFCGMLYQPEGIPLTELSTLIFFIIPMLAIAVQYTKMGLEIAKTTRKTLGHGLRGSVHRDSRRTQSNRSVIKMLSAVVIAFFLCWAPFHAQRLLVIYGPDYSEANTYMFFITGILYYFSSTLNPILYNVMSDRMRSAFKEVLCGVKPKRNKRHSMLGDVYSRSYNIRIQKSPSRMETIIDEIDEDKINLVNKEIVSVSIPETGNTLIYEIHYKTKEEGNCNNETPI
Description: as §1, §2, §3

TcPKr-A = biological target: T3, TcPKr-A (Tribolium castaneum, UniProt A0ACM8QKC5); assay: Aequorin luminescence (calcium mobilization) assay, CHO cells transiently expressing TcPKr-A
T3 sequence (A0ACM8QKC5 1-530): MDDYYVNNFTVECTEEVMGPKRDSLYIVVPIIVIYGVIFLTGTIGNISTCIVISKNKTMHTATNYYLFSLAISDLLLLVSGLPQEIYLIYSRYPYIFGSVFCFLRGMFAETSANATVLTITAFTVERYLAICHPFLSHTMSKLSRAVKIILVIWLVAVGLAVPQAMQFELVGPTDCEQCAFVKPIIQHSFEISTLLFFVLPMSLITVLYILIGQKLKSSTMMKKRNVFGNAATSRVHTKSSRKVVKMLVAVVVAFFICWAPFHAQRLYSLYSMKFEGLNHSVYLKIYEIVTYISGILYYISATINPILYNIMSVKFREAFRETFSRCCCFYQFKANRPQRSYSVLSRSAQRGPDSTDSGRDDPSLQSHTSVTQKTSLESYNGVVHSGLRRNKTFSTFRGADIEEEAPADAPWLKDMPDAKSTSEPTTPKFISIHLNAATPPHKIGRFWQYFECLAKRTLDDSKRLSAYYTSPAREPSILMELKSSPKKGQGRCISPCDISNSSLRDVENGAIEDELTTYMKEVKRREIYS
Description: as §1, §2, §3

TcPKr-C = biological target: T4, TcPKr-C (Tribolium castaneum, UniProt A0ACM8QKC4); assay: Aequorin luminescence (calcium mobilization) assay, CHO cells transiently expressing TcPKr-C; conditions: for Receptor activation, in words: text summary of dose-response data
T4 sequence (A0ACM8QKC4 1-483): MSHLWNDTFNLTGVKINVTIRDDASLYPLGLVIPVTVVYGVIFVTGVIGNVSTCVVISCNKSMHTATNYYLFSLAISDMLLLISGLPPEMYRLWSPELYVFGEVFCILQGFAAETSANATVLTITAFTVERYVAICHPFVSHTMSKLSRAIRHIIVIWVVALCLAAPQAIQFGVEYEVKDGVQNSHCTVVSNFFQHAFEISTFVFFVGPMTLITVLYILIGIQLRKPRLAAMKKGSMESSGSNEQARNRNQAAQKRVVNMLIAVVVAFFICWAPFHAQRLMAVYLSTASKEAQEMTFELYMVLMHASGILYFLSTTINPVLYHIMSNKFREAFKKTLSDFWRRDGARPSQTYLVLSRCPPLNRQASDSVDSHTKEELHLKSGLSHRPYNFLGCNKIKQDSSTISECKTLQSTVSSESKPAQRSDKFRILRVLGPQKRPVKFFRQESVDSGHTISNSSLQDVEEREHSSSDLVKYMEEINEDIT
Description: as §1, §2, §3

[1] = EC50 (bound given in μM), Fig. 3, above highest tested concentration 10 μM
[2] = Supplementary data 1, fitted value incl. extrapolations beyond 10 μM, unit inferred, nM by Fig. 3, read-out: EC50s
[3] = EC50 [nM], Fig. 3, CHO cells with aequorin and G-α16, logistic fit, ligand 0.01 nM to 10 μM, average of three independent experiments

Substance | EC50 (TcPKr-B; [1]) [µM] | EC50 (TcPKr-B; [2]) [µM] | EC50 (TcCAPAr) [nM] | EC50 (TcPKr-A; [1]) [µM] | EC50 (TcPKr-A; [2]) [µM] | EC50 (TcPKr-C; [1]) [µM] | EC50 (TcCAPAr; [3]) [nM] | EC50 (TcCAPAr; [2]) [nM] | EC50 (TcPKr-C; [2]) [µM] | Receptor activation, in words (TcPKr-C) | EC50 (TcCAPAr; [1]) [nM]
NKLASVYALTPSLRV-NH2 [CAPA-1] | > 10 | 338 | 3.7 | > 10 | 30.7 | > 10 |  |  |  |  | 
SPPFAPRL-NH2 [PK2/PBAN-2] |  | 0.0032 |  |  | 0.0175 |  | 1070 | 6970 | 0.013 |  | 
ENYVLKAAKNVPRI-NH2 [ETH-1] | > 10 | 120 |  |  | 9.84 | > 10 |  | 150 |  |  | 
FFMKASKSVPRI-NH2 [ETH-2] | > 10 | 21.8 |  |  | 6.3 | > 10 |  | 88.8 | 502 |  | 
PGANSGGMWFGPRL-NH2 [PK1/DH-1] |  | 0.161 |  |  | 0.0062 | > 10 | 6970 | 1070 |  | not | 
HSSPFSPRL-NH2 [PK2/PBAN-3] |  | 0.0287 |  |  | 0.0077 |  |  | 36600 | 0.001 |  | > 10000
HVVNFTPRL-NH2 [PK2/PBAN-1] |  | 0.0119 |  |  | 0.021 |  |  | 16100 | 0.0014 |  | > 10000
TPHESSVPNERNDDSKETYFWFGPRL-NH2 [PK1/DH-2] |  | 0.0658 |  |  | 0.0926 |  |  | 1070 | 0.576 | activated by high concentrations | 
RIGKMVSFPRI-NH2 [CAPA-2] | > 10 | 62.5 |  | > 10 | 12.8 | > 10 |  | 5.8 |  |  | 
